PMC4434572, “Identification of novel drugs to target dormant micrometastases” (BMC Cancer, 2015)
Like-named read-outs stand apart in the source and are kept apart here.

Test system: cancer cells on SISgel or plastic
Assay: Activity of leads and analogs on cancer cells grown on plastic vs SISgel (cell line not stated)
Assay type: cell-based
Settings: for SR: ratio IC50-p/IC50-S; for Hit: YES/NO
Description: The NCI library is no longer available in the form used here, but how it was constructed is described (http://dtp.nci.nih.gov/branches/dscb/diversity_explanation.html). The ChemBridge library is a subset (Set Code NM1024) of the full 50,000 compound library (http://www.chembridge.com/screening_libraries/diversity_libraries/). Compounds were diluted to 100 μM before use. SISgel was prepared as described previously from powdered porcine small intestine submucosa obtained from Cook Biotech (W. Lafayette, IN). It is a natural product that is used extensively in tissue engineering as a bioscaffold. J82 bladder cancer cells and other cell lines were obtained from the ATCC (Bethesda, MD). […] Efficacy in vitro was assessed by plating 30,000 cells in 50 μL of high glucose DMEM with penicillin-streptomycin and 10 % fetal calf serum on SISgel in a 96-well plate containing 50 μL of gelled SISgel per well. Cells were allowed to attach and assume the SISgel phenotype for 48 h. A matching plate without SISgel was prepared 24 h later by pipetting 3,000 cells in 100 μL of high glucose DMEM with penicillin-streptomycin and 10 % fetal calf serum into each well of 96 well plate. The cells were allowed to attach and grow for 24 h. […] The cells were exposed to drug in fresh medium for 48 h, at which time the cell number was determined using the CFDA-AM cellular esterase proliferation assay (cat. #C1354, Life Technologies). For screening the results are reported as the ratio of cell count of cells on the plastic surface to the cell count on SISgel. An initial difference of 1.5 fold identified potential hits. All potential hits were confirmed in triplicate. […] Data were analyzed using nonlinear regression to a sigmoid curve with Prism 4 (GraphPad Software, Inc., LaJolla, CA). […]

[1] = cells on SISgel, read-out: IC50-S
[2] = cells on plastic, read-out: IC50-p

Row | IC50 [1] [µM] | IC50 [2] [µM] | Molecule | SR | Hit | IC50 (read-out: IC50-S) [µM] | IC50 (read-out: IC50-p) [µM]
1 | 107 | 124 | O=S(=O)([O-])c1cc(S(=O)(=O)[O-])c2c(N=Nc3ccc(S(=O)(=O)[O-])c4ccccc34)c(O)c(S(=O)(=O)[O-])cc2c1.[Na+].[Na+].[Na+].[Na+] [Ponceau 6R] | 1.2 |  |  | 
2 | 15 | 38 | Cc1ccc(N=Nc2c(O)c(S(=O)(=O)[O-])cc3cc(S(=O)(=O)[O-])ccc23)c(C)c1.[Na+].[Na+] [Ponceau Xylidine] | 2.6 | YES |  | 
3 | 23 | 46 | O=S(=O)(O)c1cc(Cl)cc(N=Nc2c(S(=O)(=O)O)cc3cc(S(=O)(=O)O)c(N=Nc4cc(Cl)cc(S(=O)(=O)O)c4O)c(O)c3c2O)c1O [Sulfochlorophenol S] | 2.0 | YES |  | 
4 | 27 | 43 | O=S(=O)([O-])c1cc(S(=O)(=O)[O-])c2c(N=Nc3ccc(S(=O)(=O)[O-])c4ccccc34)c(O)ccc2c1.[Na+].[Na+].[Na+] [New Coccine] | 1.6 | YES |  | 
5 | 19 | 38 | O=S(=O)([O-])c1ccc(N=Nc2c(S(=O)(=O)[O-])cc3cc(S(=O)(=O)[O-])cc(O)c3c2O)cc1.[Na+].[Na+].[Na+] [Sulfanilic Acid Azochromotrop] | 2.0 | YES |  | 
6 | 176 | 323 | O=S(=O)([O-])c1cc(Cl)cc(N=Nc2ccc3c(S(=O)(=O)[O-])cccc3c2O)c1O.[Na+].[Na+] [Mordant Blue 9] | 1.8 |  |  | 
7 | 31 | 67 | O=S(=O)([O-])c1ccc(N=Nc2c(O)ccc3cc(S(=O)(=O)[O-])ccc23)cc1.[Na+].[Na+] [Sunset Yellow FCF] | 2.2 | YES |  | 
8 | 34 | 57 | O=S(=O)([O-])c1ccccc1N=Nc1c(S(=O)(=O)[O-])cc2cc(S(=O)(=O)[O-])c(N=Nc3ccccc3S(=O)(=O)[O-])c(O)c2c1O.[Na+].[Na+].[Na+].[Na+] [Sulfanazo II] | 2 | YES |  | 
9 | 36 | 159 | Cc1cc(-c2ccc(/N=N/c3c(S(=O)(=O)O)cc4cc(S(=O)(=O)O)cc(N)c4c3O)c(C)c2)ccc1/N=N/c1c(S(=O)(=O)O)cc2cc(S(=O)(=O)O)cc(N)c2c1O [Trypan Blue] | 4.5 | YES |  | 
10 | 45 | 106 | Cc1ccc(NC(=O)c2cc3ccccc3c(N=Nc3cc(S(=O)(=O)[O-])ccc3O)c2O)c(C)c1.[Na+] [Xylidyl Blue 1] | 2.4 | YES |  | 
11 | 54.1 | 208 | Cc1cc(C)c(S(=O)(=O)[O-])cc1N=Nc1cc(S(=O)(=O)[O-])c2ccccc2c1O.[Na+].[Na+] [Ponceau SX] | 3.8 | YES |  | 

The remaining lines, values behind:

Row | Molecule | IC50 [1] [µM] | IC50 [2] [µM] | SR | Hit | IC50 (read-out: IC50-S) [µM] | IC50 (read-out: IC50-p) [µM]
12 | O=S(=O)(O)c1cc2cc(S(=O)(=O)O)c(N=Nc3ccccc3[As](=O)(O)O)c(O)c2c(O)c1N=Nc1ccccc1[As](=O)(O)O [Arsenazo III] | 34 | 47 | 1.4 |  |  | 
13 | O=S(=O)(O)c1ccc(N=Nc2ccc3c(S(=O)(=O)O)cccc3c2O)c2ccccc12.[Na+] [Chromotrope F4B] | 50 | 90 | 1.8 | YES |  | 
14 | nitrazine Yellow | 33 | 65 | 2.0 | YES |  | 
15 | CC(=O)Nc1cc(S(=O)(=O)[O-])cc2cc(S(=O)(=O)[O-])c(N=Nc3ccccc3)c(O)c12.[Na+].[Na+] [Acid Red 1] | 13 | 33 | 2.6 | YES |  | 
16 | CCN(Cc1cccc(S(=O)(=O)[O-])c1)c1ccc(C(=C2C=CC(=[N+](CC)Cc3cccc(S(=O)(=O)[O-])c3)C=C2)c2ccccc2)cc1.[Na+] [Acid Green 3] | 666 | 492 | 0.74 |  |  | 
17 | CCOc1ccc(Nc2ccc(C(=C3C=CC(=[N+](CC)Cc4cccc(S(=O)(=O)[O-])c4)C=C3C)c3ccc(N(CC)Cc4cccc(S(=O)(=O)[O-])c4)cc3C)cc2)cc1.[Na+] [Comassie Brilliant Blue] | 125 | 201 | 1.6 |  |  | 
18 | O=S(=O)(O)c1ccc2c(O)c(N=Nc3cccc4ccccc34)c(S(=O)(=O)O)cc2c1.[Na+] [Acid Dye (Azo Red)] | 21 | 23 | 1 |  |  | 
19 | Cn1c(=O)c2[nH]c(-c3ccc(S(=O)(=O)O)cc3)nc2n(C)c1=O.O [8-(p-Sulfophenyl)theophylline hydrate] |  |  | 2.5 |  | 140 | 346
20 | CCN(Cc1cccc(S(=O)(=O)[O-])c1)c1ccc(C(=C2C=CC(=[N+](C)C)C=C2)c2ccc(N(CC)Cc3cccc(S(=O)(=O)O)c3)cc2)cc1.[Na] [Acid Violet 49] | 86 | 64 | 0.75 |  |  | 
21 | CCN(CC)c1ccc(C(=C2C=CC(=[N+](CC)CC)C=C2)c2ccc(S(=O)(=O)[O-])cc2S(=O)(=O)[O-])cc1.[Na+] [Acid Blue 1] | 194 | 318 | 1.6 |  |  | 
22 | CC(=O)Nc1ccc(N=Nc2c(N)ccc3cc(S(=O)(=O)O)cc(O)c23)c(S(=O)(=O)O)c1.N.N [Acid Red 37] | 51 | 85 | 1.7 | YES |  | 
23 | O=S(=O)(O)c1ccc2c(N=Nc3c(O)c(S(=O)(=O)O)cc4cc(S(=O)(=O)O)ccc34)c(O)c(S(=O)(=O)O)cc2c1 [2-2-dihydroxy-1-1-azo-naphthalene-3-3-6] | 111 | 213 | 1.9 |  |  | 
24 | O=[N+]([O-])c1ccc(N=Nc2c(S(=O)(=O)[O-])cc3cc(S(=O)(=O)[O-])cc(O)c3c2O)cc1.[Na+].[Na+] [Acid Red 60 Chromotrope 2B] | 22 | 26 | 1.2 |  |  | 
25 | Nc1c(N=Nc2cccc([N+](=O)[O-])c2)c(S(=O)(=O)[O-])cc2cc(S(=O)(=O)[O-])c(N=Nc3ccccc3)c(O)c12.[Na+].[Na+] [Acid Blue 29] | 122 | 212 | 1.7 |  |  | 
26 | O=S(=O)([O-])c1cc(S(=O)(=O)[O-])c2c(N=Nc3ccc(N=Nc4ccccc4)cc3)c(O)ccc2c1.[Na+].[Na+] [Brilliant Crocein Moo] | 47 | 82 | 1.8 | YES |  | 
27 | O=S(=O)(O)c1cc(O)c2c(N=Nc3c(S(=O)(=O)O)cc4cc(S(=O)(=O)O)cc(N=Nc5c(S(=O)(=O)O)cc6cc(S(=O)(=O)O)cc(O)c6c5O)c4c3O)cc(S(=O)(=O)O)cc2c1 [Calichrome] | 375 | 464 | 1.2 |  |  | 
